Assay results reported in US7265152B2 (ViroPharma Incorporated, priority 2002, dated 2007).

Columns and labels:
HCV NS5B = target: T1, HCV NS5B (Hepatitis C virus genotype 1b, UniProt Q9WMX2); assay: Inhibition of viral RNA-dependent RNA polymerase (RdRp), in vitro biochemical assay; set-up: species or system HCV genotype 1b virus (BB7); conditions: HCV NS5B RdRp, BB7 (genotype 1b); reported as class symbols; read-out: HCV pol-BB7 IC50
T1 construct: fusion protein, of which the carboxyl terminal 21 amino acids were removed to enhance its solubility; His tag (GSHHHHHH); made in house; host or cells: E. coli
Summary of the method: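 IC50 values are the concentrations that halve in vitro RNA synthesis by HCV NS5B polymerase. The enzyme was a C-terminally truncated (Δ21), His-tagged genotype 1b (BB7 consensus) protein purified from E. coli.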

[1] = tested on: HCV replicon (BB7 sequence) in Huh-7-Clone A cells; assay: HCV replicon assay: ELISA of NS5A protein in replicon-containing cells (Inhibition of Viral RNA Replication); assay type: cell-based; conditions: Hepatitis C virus; HCV replicon assay; ranges of EC50; read-out: Replicon
Summary of the method: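 EC50 taken from an 8-point serially diluted dose curve, with NS5A level as read-out: fixed cells probed with primary monoclonal and HRP-conjugated secondary, TMB developed 30 min, OD 650 nm. Compound exposure 72 h in Huh-7-Clone A replicon cells (BB7 sequence).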

Structure (SMILES)	IC50 (HCV NS5B) [nM]	EC50 [1] [nM]
CNC(=O)c1c(-c2ccc(F)cc2)oc2cc(N(COC)S(C)(=O)=O)c(O)cc12 [Example 444, 2-(4-Fluoro-phenyl)-5-hydroxy-6-(methanesulfonyl-methoxymethyl-amino)-benzofuran-3-carboxylic acid methylamide]	≤ 500	< 10000
CCCOc1cc2c(C(=O)NC)c(-c3ccc(F)cc3)oc2cc1NS(C)(=O)=O [Example 445, 2-(4-Fluoro-phenyl)-6-methanesulfonylamino-5-propoxy-benzofuran-3-carboxylic acid methylamide]	≤ 500	< 1000
CNC(=O)c1c(-c2ccc(F)cc2)oc2cc(N(COC)S(C)(=O)=O)c(OCc3ccc(C#N)cc3)cc12 [Example 446, 5-(4-Cyano-benzyloxy)-2-(4-fluoro-phenyl)-6-(methanesulfonyl-methoxymethyl-amino)-benzofuran-3-carboxylic acid methylamide]	≤ 500	< 1000
CNC(=O)c1c(-c2ccccc2)oc2ccc(OC)cc12 [Example 452, 5-Methoxy-2-phenyl-benzofuran-3-carboxylic acid methylamide]	≤ 500	> 10000
